The record followed here is patent US20240279236A1, “COMPOUNDS AND METHODS OF TREATING TUBERCULOSIS” (Fimbrion Therapeutics, Inc., priority 2021, published 2024).

Each structure is given as a SMILES string.

The term IC50 denotes the concentration at which inhibition is half-maximal.

The test system of the assay is WT Mtb Erdman strain. Put plainly: Microplate Alamar Blue Assay (MABA), Mtb growth inhibition. It counts as cell-based, Mycobacterium tuberculosis. The note with it: Mycobacterium tuberculosis, ERDMAN, 168 h, Middlebrook 7H9 media, 7 days at 37° C. in 5% CO2.
Compound `CCc1nc(NCCCc2ccc(-c3cnccn3)cc2)c2cc(C)sc2n1` [Example 371, 2-ethyl-6-methyl-N-(3-(4-(pyrazin-2-yl)phenyl)propyl) thieno[2,3-d]pyrimidin-4-amine] returned a 50% inhibitory concentration (IC50) of 150 nM.

In turn, `CCc1nc(NCC#Cc2ccccc2)c2cc(C)sc2n1` [Example 193, 2-ethyl-6-methyl-N-(3-phenylprop-2-yn-1-yl)thieno[2,3-d]pyrimidin-4-amine] had a 50% inhibitory concentration (IC50) of 1800 nM.

Compound `CN(C)c1nc(NCCCc2ccc(-c3ccc(OC(F)(F)F)cc3)cc2)c2ncsc2n1` [Example 536, N5,N5-dimethyl-N7-(3-(4′-(trifluoromethoxy)-[1,1′-biphenyl]-4-yl)propyl)thiazolo[5,4-d]pyrimidine-5,7-diamine] gave an IC50 of 88 nM.

As for `COc1ccc(CCCNc2nc(-c3ccoc3)nc3sc(C)cc23)cc1` [Example 118, 2-(furan-3-yl)-N-(3-(4-methoxyphenyl)propyl)-6-methylthieno[2,3-d]pyrimidin-4-amine], 82 nM corresponded to half-maximal inhibition (IC50).

Compound `CCc1nc(NCCC(c2ccccc2)c2ccccc2)c2cc(C)sc2n1` [Example 170, N-(3,3-diphenylpropyl)-2-ethyl-6-methylthieno[2,3-d]pyrimidin-4-amine] came in with a concentration for half-maximal inhibition (IC50) of 360 nM.

The compound `Cc1cc2c(NCCN3CCN(c4ccccc4)CC3)nc(-c3ccoc3)nc2s1` [Example 209, 2-(furan-3-yl)-6-methyl-N-(2-(4-phenylpiperazin-1-yl)ethyl)thieno[2,3-d]pyrimidin-4-amine] registered an IC50 of 4900 nM.

In turn, `Cc1cc2c(NCCCc3ccc(-c4ccc(OC(F)(F)F)cc4)cc3)nc(-c3ccc[nH]3)nc2s1` [Example 567, 6-methyl-2-(1H-pyrrol-2-yl)-N-(3-(4′-(trifluoromethoxy)-[1,1′-biphenyl]-4-yl)propyl)thieno[2,3-d]pyrimidin-4-amine] returned an IC50 below 4 nM.

With `Cc1cc2c(NCCCc3ccc(-c4cnc(N5CCCC5)cn4)cc3)nc(N3CCCC3)nc2s1` [Example 575, 6-methyl-2-(pyrrolidin-1-yl)-N-(3-(4-(5-(pyrrolidin-1-yl)pyrazin-2-yl)phenyl)propyl)thieno[2,3-d]pyrimidin-4-amine], the half-inhibitory concentration (IC50) was 91 nM.

In turn, `CCc1nc(NCCCc2ccc(-c3cc(Cl)cc(Cl)c3)cc2)c2cc(C)sc2n1` [Example 308, N-(3-(3′,5′-dichloro-[1,1′-biphenyl]-4-yl)propyl)-2-ethyl-6-methylthieno[2,3-d]pyrimidin-4-amine] gave a concentration for half-maximal inhibition (IC50) of 240 nM.

`Cc1cc2c(NCCCc3ccccc3)nc(NCc3ccco3)nc2s1` [Example 529, N2-(furan-2-ylmethyl)-6-methyl-N4-(3-phenylpropyl)thieno[2,3-d]pyrimidine-2,4-diamine] displayed an IC50 above 10000 nM.

In turn, `Cc1cc2c(NCCCc3ccccc3)nc(C(C)(C)C)nc2s1` [Example 51, 2-(tert-butyl)-6-methyl-N-(3-phenylpropyl)thieno [2,3-d]pyrimidin-4-amine] yielded a 50% inhibitory concentration (IC50) above 10000 nM.

`Cc1cc2c(NCCCc3ccc(-c4ccc(C(F)(F)F)cn4)cc3)nc(N(C)C)nc2s1` [Example 557, N2,N2,6-trimethyl-N4-(3-(4-[5-(trifluoromethyl)pyridin-2-yl]phenyl)propyl)thieno[2,3-d]pyrimidine-2,4-diamine] yielded an IC50 below 4 nM.

In turn, `Cc1cc2c(NCCCc3ccccc3)nc(CN3CCCC3)nc2s1` [Example 108, 6-methyl-N-(3-phenylpropyl)-2-(pyrrolidin-1-yLM ethyl)thieno[2,3-d]pyrimidin-4-amine] came in with a half-maximal inhibitory concentration (IC50) above 7800 nM.

Compound `Fc1ccc([C@@H]2C[C@H]2Nc2nc(-c3ccccn3)nc3sccc23)cc1F` [Example 31, N-((1R,2S)-2-(3,4-difluorophenyl)cyclopropyl)-2-(pyridin-2-yl)thieno[2,3-d]pyrimidin-4-amine] yielded a half-inhibitory concentration (IC50) of 7100 nM.

Consider `Cc1cc2c(NCCCc3ccc(N4CCOCC4)cc3)nc(C(F)(F)F)nc2s1` [Example 422, 6-methyl-N-(3-(4-morpholinophenyl)propyl)-2-(trifluoromethyl) thieno[2,3-d]pyrimidin-4-amine], for which half-maximal inhibition (IC50) was put at 2100 nM.
